≈ marks a conversion by molar mass, not a printed value. Like-named read-outs stand apart in the source and are kept apart here.
Legend:
Assay in all cases: In vitro antimicrobial activity, MIC by broth microdilution (CLSI)
Format in all cases: cell-based
[1] = test system: A. baumannii JMI2346; settings: for MIC: Acinetobacter baumannii
Procedure, shortened: (§1)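 MIC (μg/mL) by CLSI broth microdilution, inoculum 5×10^5 cfu/mL, in cation-adjusted Iso-Sensitest broth containing human apo-transferrin.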

[2] = test system: A. baumannii JMI7; settings: for MIC: Acinetobacter baumannii
Procedure, shortened: as §1

[3] = test system: E. Coli JMI1890; settings: for MIC: Escherichia coli, read-out: Minimum Inhibitory Concentration (MIC) E. Coli JMI:1890
Procedure, shortened: as §1

[4] = test system: K. pneumoniae SR01358; settings: for MIC: Klebsiella pneumoniae
Procedure, shortened: as §1

[5] = JMI2346, read-out: Minimum Inhibitory Concentration (MIC) A. baumannii JMI:2346
[6] = JMI7, read-out: Minimum Inhibitory Concentration (MIC) A. baumannii JMI:7
[7] = SR01358, read-out: Minimum Inhibitory Concentration (MIC) K. pneumoniae SR01358
[8] = JMI2346, OXA-51, TEM, ESBL and OXA-type carbapenemase producing strain, 5×10^5 cfu/mL, cation-adjusted Iso-Sensitest broth containing human Apo-transferrin, read-out: Minimum Inhibitory Concentration (MIC) A. baumannii JMI:2346
[9] = JMI7, PER-1, OXA-23, 51, ESBL and OXA-type carbapenemase producing strain, 5×10^5 cfu/mL, cation-adjusted Iso-Sensitest broth containing human Apo-transferrin, read-out: Minimum Inhibitory Concentration (MIC) A. baumannii JMI:7
[10] = PER-1, TEM-1, ESBL producing strain, 5×10^5 cfu/mL, cation-adjusted Iso-Sensitest broth containing human Apo-transferrin
[11] = SR01358, KPC-2, ESBL and KPC-type carbapenemase producing strain, 5×10^5 cfu/mL, cation-adjusted Iso-Sensitest broth containing human Apo-transferrin, read-out: Minimum Inhibitory Concentration (MIC) K. pneumoniae SR01358
[12] = OXA-51, TEM, ESBL and OXA-type carbapenemase producing strain, 5×10^5 cfu/mL, cation-adjusted Iso-Sensitest broth containing human Apo-transferrin
[13] = PER-1, OXA-23, 51, ESBL and OXA-type carbapenemase producing strain, 5×10^5 cfu/mL, cation-adjusted Iso-Sensitest broth containing human Apo-transferrin
[14] = KPC-2, ESBL and KPC-type carbapenemase producing strain, 5×10^5 cfu/mL, cation-adjusted Iso-Sensitest broth containing human Apo-transferrin

| MIC [1, 8] [µg/mL] | MIC [2, 9] [µg/mL] | MIC [3, 10] [µg/mL] | MIC [4, 11] [µg/mL] | SMILES | other results |
| --- | --- | --- | --- | --- | --- |
|  |  |  |  | C[C@@H]1S[C@@H]2[C@H](NC(=O)/C(=N\OC(C)(C)C(=O)[O-])c3csc(N)n3)C(=O)N2C(C(=O)O)=C1C[N+]12CCC(CC1)N(C(=O)C(=NO)c1cc(O)c(O)c(Cl)c1)CC2 [Compound I-138] | MIC [1, 5]: 4 µg/mL (≈ 4.87 µM); MIC [2, 6]: 0.5 µg/mL (≈ 0.609 µM); MIC [3]: 0.25 µg/mL (≈ 0.304 µM); MIC [4, 7]: ≤ 0.031 µg/mL |
|  |  |  |  | C[C@@H]1S[C@@H]2[C@H](NC(=O)/C(=N\OC(C)(C)C(=O)[O-])c3csc(N)n3)C(=O)N2C(C(=O)O)=C1C[N@+]1(C)[C@@H]2CC[C@H]1C[C@@H](N1C(=O)c3ccc(O)c(O)c3C1=O)C2 [Compound I-38] | MIC [1, 5]: 0.5 µg/mL (≈ 0.638 µM); MIC [2, 6]: 0.25 µg/mL (≈ 0.319 µM); MIC [3]: 0.25 µg/mL (≈ 0.319 µM); MIC [4, 7]: 0.063 µg/mL (≈ 0.0804 µM) |
| 2 (≈ 2.57 µM) | 0.5 (≈ 0.642 µM) | 0.25 (≈ 0.321 µM) | ≤ 0.031 | C[C@@H]1S[C@@H]2[C@H](NC(=O)/C(=N\OC(C)(C)C(=O)[O-])c3csc(N)n3)C(=O)N2C(C(=O)O)=C1C[N+]12CCC(CNC(=O)c3cc(O)c(O)c(Cl)c3)(CC1)C2 [Compound I-142] |  |
| 16 | 1 | 1 | ≤ 0.031 | C[C@@H]1S[C@@H]2[C@H](NC(=O)/C(=N\OC(C)(C)C(=O)[O-])c3csc(N)n3)C(=O)N2C(C(=O)[O-])=C1C[N+]1(CCN2C(=O)c3cc(O)c(O)cc3C2=O)CCCC1.[Na+] [Compound I-1] |  |
| 0.5 (≈ 0.65 µM) | 0.25 (≈ 0.325 µM) | 0.063 (≈ 0.0819 µM) | ≤ 0.031 | C[C@@H]1S[C@@H]2[C@H](NC(=O)/C(=N\OC(C)(C)C(=O)O)c3csc(N)n3)C(=O)N2C(C(=O)[O-])=C1C[N+]12CCC(Cn3ncc4cc(O)c(O)cc4c3=O)(CC1)C2 [Compound I-126] |  |
| 2 (≈ 2.44 µM) | 0.5 (≈ 0.609 µM) | 0.25 (≈ 0.304 µM) | ≤ 0.031 | C[C@@H]1S[C@@H]2[C@H](NC(=O)/C(=N\OC(C)(C)C(=O)[O-])c3csc(N)n3)C(=O)N2C(C(=O)O)=C1C[N+]12CCC(CC1)N(C(=O)/C(=N\O)c1ccc(O)c(O)c1Cl)CC2 [Compound I-137] |  |
|  |  |  |  | CO/N=C(\C(=O)NCC12CC[N+](CC3=C(COO)N4C(=O)[C@@H](NC(=O)/C(=N\OC(C)(C)C(=O)[O-])c5csc(N)n5)[C@H]4S[C@H]3C)(CC1)CC2)c1cc(O)c(O)c(Cl)c1 [Compound I-131] | Minimum Inhibitory Concentration (MIC) A. baumannii JMI:2346 [1, 12]: 2 µg/mL; Minimum Inhibitory Concentration (MIC) A. baumannii JMI:7 [2, 13]: 2 µg/mL; Minimum Inhibitory Concentration (MIC) E. Coli JMI:1890 [3, 10]: 0.125 µg/mL; Minimum Inhibitory Concentration (MIC) K. pneumoniae SR01358 [4, 14]: 0.063 µg/mL |
|  |  |  |  | CO/N=C(\C(=O)NCC12CC[N+](CC3=C(COO)N4C(=O)[C@@H](NC(=O)/C(=N\OC(C)(C)C(=O)[O-])c5csc(N)n5)[C@H]4S[C@H]3C)(CC1)CC2)c1cc(O)c(O)c(F)c1 [Compound I-132] | Minimum Inhibitory Concentration (MIC) A. baumannii JMI:2346 [1, 12]: 4 µg/mL; Minimum Inhibitory Concentration (MIC) A. baumannii JMI:7 [2, 13]: 1 µg/mL; Minimum Inhibitory Concentration (MIC) E. Coli JMI:1890 [3, 10]: 0.25 µg/mL; Minimum Inhibitory Concentration (MIC) K. pneumoniae SR01358 [4, 14]: ≤0.031 µg/mL |
| 4 (≈ 5.17 µM) | 0.5 (≈ 0.646 µM) | 0.5 (≈ 0.646 µM) | ≤ 0.031 | C[C@@H]1S[C@@H]2[C@H](NC(=O)/C(=N\OC(C)(C)C(=O)[O-])c3csc(N)n3)C(=O)N2C(C(=O)O)=C1C[N+]1(CCON2C(=O)c3cc(O)c(O)cc3C2=O)CCCC1 [Compound I-27] |  |
| 8 | 2 | 0.5 | ≤ 0.031 | C[C@@H]1S[C@@H]2[C@H](NC(=O)/C(=N\OC(C)(C)C(=O)[O-])c3csc(N)n3)C(=O)N2C(C(=O)[O-])=C1C[N+]12CCC[C@H]1CN(C(=O)c1cc(O)c(O)c(F)c1)CC2.[Na+] (some centres unmarked) [Compound I-68] |  |
| 0.5 | 0.25 | ≤ 0.031 | 0.063 | C[C@@H]1S[C@@H]2[C@H](NC(=O)/C(=N\OC(C)(C)C(=O)[O-])c3csc(N)n3)C(=O)N2C(C(=O)[O-])=C1C[N+]12CCCC(CNC(=O)c3ccc(O)c(O)c3Cl)(CCC1)C2.[Na+] [Compound I-118] |  |
| 4 | 0.25 | 0.25 | ≤ 0.031 | C[C@@H]1S[C@@H]2[C@H](NC(=O)/C(=N\OC(C)(C)C(=O)[O-])c3csc(N)n3)C(=O)N2C(C(=O)[O-])=C1C[N+]1(CCNC(=O)C(=O)c2ccc(O)c(O)c2Cl)CCCC1.[Na+] [Compound I-74] |  |
| 8 | 2 | 0.5 | 0.25 | C[C@@H]1S[C@@H]2[C@H](NC(=O)/C(=N\OC(C)(C)C(=O)[O-])c3csc(N)n3)C(=O)N2C(C(=O)[O-])=C1C[N+]12CCC[C@H]1CN(C(=O)C(=O)c1cc(O)c(O)c(F)c1)CC2.[Na+] (some centres unmarked) [Compound I-85] |  |

| SMILES | MIC [1, 8] [µg/mL] | MIC [2, 9] [µg/mL] | MIC [3, 10] [µg/mL] | MIC [4, 11] [µg/mL] | other results |
| --- | --- | --- | --- | --- | --- |
| C[C@@H]1S[C@@H]2[C@H](NC(=O)/C(=N\OC(C)(C)C(=O)[O-])c3csc(N)n3)C(=O)N2C(C(=O)O)=C1C[N+]12CCC(Cn3[nH]c(=O)c4cc(O)c(O)cc4c3=O)(CC1)CC2 [Compound I-122] | 2 (≈ 2.5 µM) | 0.5 (≈ 0.626 µM) | 0.25 (≈ 0.313 µM) | ≤ 0.031 |  |
| C[C@@H]1S[C@@H]2[C@H](NC(=O)/C(=N\OC(C)(C)C(=O)[O-])c3csc(N)n3)C(=O)N2C(C(=O)[O-])=C1C[N+]1(C)[C@@H]2CC[C@H]1C[C@@H](NC(=O)c1cc(O)c(O)c(F)c1)C2.[Na+] (some centres unmarked) [Compound I-71] | 2 | 0.5 | 0.25 | ≤ 0.031 |  |
| C[C@@H]1S[C@@H]2[C@H](NC(=O)/C(=N\OC(C)(C)C(=O)[O-])c3csc(N)n3)C(=O)N2C(C(=O)O)=C1C[N+]12CCC(CN3C(=O)c4ccc(O)c(O)c4C3=O)(CC1)CC2 [Compound I-39] | 1 (≈ 1.28 µM) | 0.125 (≈ 0.159 µM) | 0.25 (≈ 0.319 µM) | 0.063 (≈ 0.0804 µM) |  |
| C[C@@H]1S[C@@H]2[C@H](NC(=O)/C(=N\OC(C)(C)C(=O)O)c3csc(N)n3)C(=O)N2C(C(=O)[O-])=C1C[N+]12CCC(Cn3ncc4cc(O)c(O)cc4c3=O)(CC1)CC2 [Compound I-124] | 2 (≈ 2.55 µM) | 0.5 (≈ 0.639 µM) | 0.125 (≈ 0.16 µM) | ≤ 0.031 |  |
| C[C@@H]1S[C@@H]2[C@H](NC(=O)/C(=N\OC(C)(C)C(=O)[O-])c3csc(N)n3)C(=O)N2C(C(=O)O)=C1C[N+]12CCC(CNC(=O)/C(=N\O)c3ccc(O)c(O)c3Cl)(CC1)CC2 [Compound I-94] | 4 (≈ 4.79 µM) | 1 (≈ 1.2 µM) | 0.5 (≈ 0.599 µM) | 0.063 (≈ 0.0754 µM) |  |
| C[C@@H]1S[C@@H]2[C@H](NC(=O)/C(=N\OC(C)(C)C(=O)[O-])c3csc(N)n3)C(=O)N2C(C(=O)O)=C1C[N@+]1(C)[C@@H]2CC[C@H]1C[C@@H](NC(=O)c1ccc(O)c(O)c1Cl)C2 [Compound I-54] | 1 (≈ 1.26 µM) | 0.5 (≈ 0.631 µM) | 0.125 (≈ 0.158 µM) | ≤ 0.031 |  |
| C[C@@H]1S[C@@H]2[C@H](NC(=O)/C(=N\OC(C)(C)C(=O)[O-])c3csc(N)n3)C(=O)N2C(C(=O)[O-])=C1C[N+]12CCC(CNN3C(=O)c4cc(O)c(O)c(Cl)c4C3=O)(CC1)CC2.[Na+] [Compound I-114] | 4 | 0.5 | 0.125 | ≤ 0.031 |  |
